Target: T1, taspase1 (Homo sapiens, UniProt Q9H6P5)
T1 sequence (Q9H6P5 1-233 limits assumed): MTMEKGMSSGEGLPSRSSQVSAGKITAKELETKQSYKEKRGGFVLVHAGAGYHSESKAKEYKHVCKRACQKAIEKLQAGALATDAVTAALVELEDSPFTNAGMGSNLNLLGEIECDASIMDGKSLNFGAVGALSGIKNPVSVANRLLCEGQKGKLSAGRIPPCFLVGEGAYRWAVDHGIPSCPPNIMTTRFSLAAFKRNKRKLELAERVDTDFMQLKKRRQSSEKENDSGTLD
T1 sequence (Q9H6P5 234-420 limits assumed): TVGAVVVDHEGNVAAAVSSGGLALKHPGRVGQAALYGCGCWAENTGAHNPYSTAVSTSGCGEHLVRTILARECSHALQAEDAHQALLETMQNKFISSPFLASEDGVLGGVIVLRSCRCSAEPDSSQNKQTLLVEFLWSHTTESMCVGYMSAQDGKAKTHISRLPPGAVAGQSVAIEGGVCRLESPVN
Assay: Inhibition rates after different pre-incubation times
Assay type: biochemical
Conditions: different amounts of pre-incubation time

time dependence of inhibition: inhibition was not time dependent
Substance: Ac-Ile-Ser-Gln-Leu-Asp-vs [yzm18]
